Experiments:
anti-PSA antibody 735 = assay: Competition ELISA: antibody 735 binding to immobilized PSA mimicking peptide
Protocol: To confirm that the compounds identified in the screening from Example 1 are indeed PSA mimetics, binding of tegaserod maleate ((E)-but-2-enedioic acid; 1-[[(Z)-(5-methoxyindol-3-ylidene) methyl]amino]-2-pentylguanidine; hereafter termed tegaserod) and the control compound nitrendipine (5-O-ethyl 3-O-methyl-2,6-dimethyl-4-(3-nitrophenyl)-1,4-dihydropyridine-3,5-dicarboxylate) to the PSA antibody 735 was analyzed by competition ELISA. 384-well flat bottom microtiter plates (Corning Life Sciences) were coated in triplicates with 25 µl of PSA mimicking peptide coupled to catalase (3 µg/ml) or PBS alone at 4°C overnight. All following steps were carried out at room temperature. After blocking with 1% BSA in PBS for 1 h, the wells were washed three times for 5 min with PBS containing 0.05% Tween-20 (PBST). Wells were incubated with increasing concentrations of tegaserod and nitrendipine, pre-incubated with anti-PSA antibody 735 (0.1 µg/ml) for 1 h. […] The reaction was stopped by addition of 50 µl 2.5 M H2SO4 and quantified using an ELISA reader (µQuant, Bio-TEK, Winooski, VT, USA) at 490 nm and the software KCjunior (Bio-TEK).

[1] = tested on: PSA specific monoclonal antibody 735; assay: Surface plasmon resonance competition experiment (BIAcore 3000); format: binding; details: compared to antibody not mixed with tegaserod; antibody 10 nM pre-incubated with 1-30 µM compound; Figure 1B
Protocol: The running buffer was phosphate-buffered saline (PBS, pH 7.4). PSA mimicking peptide coupled to catalase was covalently immobilized to CM5 sensor chips (carboxymethyl dextran; GE Healthcare Europe GmbH) via primary amino groups, using standard coupling protocols (Karlsson et al. (1991); J. Immunol. Methods 145 (1-2): 229-240. In brief, the sensor surface was activated by a 7-min pulse of 0.2 M N-ethyl-N-(3-dimethylaminopropyl) carbodiimide and 50 mM N-hydroxysuccinimide. The PSA peptide solution (10 nM in 10 mM sodium acetate, pH 5.2) was then injected for 5-10 min. Ethanolamine (1 M, pH 8.5) was used to block remaining activated carboxyl groups. Ligand densities of 100-150 fmol/mm^2 were reached. Immobilized control peptide (10 nM PSA scrambled peptide coupled to catalase) was used as a reference surface. […] The data were analyzed using the BIAevaluation 3.0 software. All sensorgrams were corrected for background and bulk refractive index by subtraction of the reference.
To confirm that tegaserod binds specifically to antibody 735, a competition experiment was performed. First, the PSA specific monoclonal antibody 735 (10 nM) was pre-incubated for 1 h at room temperature with different molar concentrations (1, 2, 5, 8, 15 and 30 µM) of tegaserod or control compound. Then the antibody/organic compound solutions were injected ([…]) to the PSA peptide-coupled chip. […]

murine motoneurons = assay: In vitro neurite outgrowth of motoneurons; format: cell-based, C57BL/6J mice; details: tegaserod, cisapride, GR113808 100 nM; colominic acid 3 µM; PSA mimicking peptide 30 µM; Figure 2B
Protocol: (§1) Primary cultures of cerebellar neurons or Schwann cells were prepared from cerebellum or dorsal root ganglia of 7-day-old C57BL/6J mice as described in Mehanna et al. (2009), Brain, 132 (Pt 6): 1449-62 and Loers et al. (2005), J. Neurochem., 92(6): 1463-76. Motoneurons were prepared from E14 C57BL/6J mice as described in Simova et al. (2006), Ann. Neurol., 60(4): 430-437. In brief, 48-well plates were coated with 0.01% poly-L-lysine (PLL) or poly-L-ornithine (PLO) overnight at 4°C, washed twice with water and air-dried. Directly before use, plates were washed twice with PBS, and Schwann cells, cerebellar neurons (PLL) or motoneurons (PLO) were seeded at a density of 1.25 x 10^4 (Schwann cells and motoneurons) or 2.5 x 10^4 cells (cerebellar neurons) per well in 250 µl of corresponding serum-free culture medium. Soluble organic compounds were added to the culture 1 h after seeding in increasing concentrations. After maintenance for 24 h at 37°C, cells were fixed with 2.5% glutaraldehyde and stained with 1% methylene blue/toluidine blue in 1% borax. Morphological quantification of neurite or process lengths was performed as described in Mehanna et al. (2009), see above. Schwann cell processes and neurites of cerebellar neurons with a length of at least one cell body diameter were counted and total neurite or process length per cell was determined by counting 50 cells in each of two wells per experiment. At least three independent experiments were performed for each culture. Also, the activity of tegaserod with the PSA peptide mimic and the bacterial PSA analogue, colominic acid, on neurite and process extension experiments was compared.

[2] = tested on: cerebellar granule neurons (cGNs); assay: In vitro neurite outgrowth of cerebellar granule neurons; format: cell-based, C57BL/6J mice; details: compared to control; Figure 2C, D
Protocol: as §1

[3] = tested on: 2 mm femoral nerve defect; assay: Femoral nerve regeneration: locomotor recovery (FBA, PLR, recovery index); format: in vivo, C57BL/6J mice; details: for average FBA (foot base angle): end of the 15-week study, control group 93 degrees
From the text: Briefly, mice were anesthetized and the femoral nerve of the left rear leg exposed. The nerve was bis-sected 3 mm proximal to the branching of the saphenous and motor branches, and the nerve ends were sutured 0.5 mm into a 3 mm polyethylene conduits with 0.58 mm inner diameter (Becton Dickinson), leaving an overall gap length of 2 mm.
The FBA measures the angle between the hind paw and a beam as the mouse is pushing and bearing weight with the foot of the injured limb.
FBA is governed largely by the quadriceps muscle, the major muscular innervation target of the femoral nerve. Mice were trained to walk on a beam for 2 weeks prior to surgery and single frame video motion analysis (Simi Reality Motion Systems, Simi Sportsplayer) was used to quantify the angle between the beam and the foot when the toes from the left leg are fully extended.
As a complement to assessment of the FBA that measures a weight-bearing reflexive movement, the protraction limb ratio (PLR) is indicative of voluntary movement of the hind limb. […] Mice are suspended by the tail above a pencil and allowed to grasp the pencil. The PLR is measured by dividing the relative length that the uninjured hind leg extends to the pencil by the length that the injured hind limb extends.
To account for any variability between animals, an index is calculated that takes into account the initial FBA and PLR of animals prior to surgery. The recovery index is calculated by the equation: RI= (Xday y-Xday 1wk)/(Xday 0-Xday 7) x 100, where Xday0 is the measurement before injury, Xday 1wk is the measurement one week after injury, and Xday y is the measurement at the study endpoint. An RI value 100 indicates complete recovery of function.

[H]/N=C(/NCCCCC)N/N=C/c1c[nH]c2ccc(OC)cc12 [tegaserod, (E)-but-2-enedioic acid; 1-[[(Z)-(5-methoxyindol-3-ylidene)methyl]amino]-2-pentylguanidine]
concentration of maximal inhibition of binding of mAb 735 with the PSA peptide mimic (anti-PSA antibody 735; competition ELISA, Figure 1A): approximately 100 nM
inhibition of binding of mAb 735 with the PSA peptide mimic (in words) (anti-PSA antibody 735; increasing concentrations, pre-incubated with antibody 735 (0.1 µg/ml) for 1 h): inhibit binding of mAb 735 with the PSA peptide mimic in a dose dependent manner
disruption of the capability of mAb 735 to bind to the PSA peptide mimic bound to the chip surface [1]: 80%
effect on neurite extension of murine motoneurons (in words) (murine motoneurons): significant stimulatory effect
effect on neurite outgrowth of cGNs (in words) [2]: significantly enhance neurite/process outgrowth compared to control
time after nerve injury at which sustained improvement of the FBA first became apparent ([3]; 250 nM in hydrogel conduit): 6 weeks
time at which FBA improvement became statistically significant from the vehicle control group ([3]; 250 nM in hydrogel conduit): 10 weeks
average FBA (foot base angle) ([3]; 250 nM in hydrogel conduit): 82 degrees
average recovery index (RI) for the FBA ([3]; 250 nM, 15 weeks, vehicle control 37%): 62%
time to return to pre-surgery PLR (protraction limb ratio) ([3]; 250 nM, vehicle control 8 weeks): ≤ 6 weeks
PLR versus other groups (in words) ([3]; 2,500 nM): remained consistently higher than the other two groups
FBA recovery versus vehicle control (in words) ([3]; 2,500 nM in hydrogel conduit): did not show statistically significant difference from vehicle control
average FBA (foot base angle) ([3]; 2,500 nM in hydrogel conduit): 87 degrees
recovery index (RI) for the FBA ([3]; 2,500 nM, 15 weeks, vehicle control 37%, considerable variation): 51%
RI of the PLR reached by the majority of mice ([3]; 2,500 nM, a single mouse did not recover): 100%
